A short description of series [1]: HPLC of old standard solutions stored at room temperature. Format: physicochemical.
Series [2] is described as follows: Preliminary solubility experiments in methanol. Format: physicochemical. Here is the method: Samples were weighed into 20-mL scintillation vials and 10 mL of methanol pipetted into each vial. […] An additional 10 mL of methanol was added to each of these vials. Now sample 3 dissolved completely, but particles still remained in sample 5. An additional 20 mL of methanol was added to sample 5, but on sonication, the small quantity of particles still remained.

Series [3] is described as follows: Solubility of S4 and S5 in methanol and ethanol (saturated solution, HPLC). The conditions noted are these: 25° C.; for solubility at 5 min: organic solvent or mixture, thermodynamic from solid. Format: physicochemical. Here is the method:
HPLC Method • Column: Phenomenex Luna C18(2), 15-cm×4.6 mm. • Buffer Concentrate (BC): 100 mL Et3N×80 mL 85% H3PO4 to 1000 mL with water. • Mobile Phase B=250 mL ACN+10 mL of BC to 1000 mL with water. • Mobile Phase C=100% ACN • Isocratic Mixture: 60% Phase B and 40% Phase C. • Alternatively, use 55% Acetonitrile with 3-mL Buffer Concentrate/1000 mL • Flow=1.5 mL/min Temperature=30° C. Wavelength=330 nm Injection=20 μL
Procedure for Formation of a Saturated Solution • 1. Weigh in duplicate approximately 100 milligrams of each standard into 1.5 mL mini-centrifuge tubes. • 2. Add 1.00 mL of Methanol to a S4 tube and 1.00 mL of Ethanol to the other S4 tube. Add 1.00 mL of Methanol to a S5 tube and 1.00 mL of Ethanol to the other S5 tube. • 3. Shake all four tubes for 5 minutes at room temperature (25° C.). • 4. Centrifuge at 6000 rpm for 10 minutes. The supernatant should be a saturated solution. • 5. Assay the supernatants by HPLC. Use a 20/1000 dilution in methanol. The target absorbance is 0.40 AU. A reasonable absorbance range is 0.10 to 1.20. If the absorbance that is found is outside of this range, dilute appropriately to bring the absorbance close to 0.40.

Series [4] is described as follows: HPLC analysis for degradation after supercritical fluid particle size reduction. Type of series: physicochemical. Conditions: nitrogen 3,000 psig, 60 minutes, rapid depressurization. As for the experimental part:
Three nanoparticles experiments were conducted—two with surrogate compounds and one with aminoflavone prodrug (Sample 5). In general, the poorly water-soluble anticancer compound was first saturated with water by placement in the vapor generated by a 39° C. temperature water bath for 60 minutes. The water-saturated sample was then frozen in a −80° C. freezer for 60 minutes. The frozen particles were then placed in the chamber of the nanoparticles apparatus (FIG. 2) and contacted with nitrogen at 3,000 psig for 60 minutes to ensure maximum saturation of the hydrophobic anticancer compound by the SFS. The materials were then rapidly depressurized, discharging the chamber contents into a collection container. The experiments were conducted following Standard Operating Procedure SOP #APH-S0603 and Drawing #9706-001 Rev 2 in Appendix C.
Three samples in aluminum weigh boats with contents weight of 0.4 to 0.5 mg was provided. To obtain the assay solution, each boat was placed in a sonicator bath filled to a height of 3 mm with water. Ten milliliters of methanol was pipetted into the boat and the sonicator was turned on for 20 seconds. The yellow residue in the boat dissolved completely in less than 5 seconds. After sonication, the sample was drawn back into the 10 mL pipette and transferred to a 20 mL scintillation vial to await HPLC assay. […]

Series [5] is described as follows: HPLC analysis of 0.45 micron filter filtrate of BPN-20 in 1% PVA. Type of series: physicochemical. Here is the method: Procedure: • 1. Write A, B, C, and D on each of four 0.45 micron 47 mm Nylon 66 filters with a soft pencil. • 2. Weigh each of the filters. • 3. Draw Methanol through Filter A and set on a paper towel to dry. • 4. Weigh about 10 mg of aminoflavone onto Filter B and get an accurate weight. • 5. Draw 100 mL of Methanol through Filter B and bring to 100 mL in a 100 mL vol flask • 6. Set Filter B aside to dry on a paper towel. • 7. Draw 20 mL of 1% PVA through Filter C and set on a paper towel to dry. • Save the Filtrate for HPLC Assay • 8. Draw 20 mL of BPN-20 yellow ppt through Filter D and set on a paper towel to dry. • Save the Filtrate for HPLC Assay • 9. Place all four filters in the vacuum oven for 1 hour at 60 C. Then weigh the filters. • 10. Draw 100 mL of Methanol through Filters C and D. Bring to 100 mL with Methanol. • 11. Dry, vacuum oven, and get an accurate weight on filters C and D.

The conditions of series [6]: molar-equivalent basis; cited from earlier work.
Series [7] can be described thus: Solubility of aminoflavone in DI water and 1% PVA (HPLC). Format: physicochemical. The conditions noted are these: for solubility at 5 min: thermodynamic from solid. Here is the method:
Procedure: • 1. Weigh 5-10 mg of Aminoflavone into two 20 mL scintillation vials. • 2. Pipette 10 mL of water into Vial A and 10 mL of 1% PVA into Vial B. • 3. Shake the vials gently for about 5 minutes. Then let stand for 30 minutes. • 4. Carefully withdraw 0.9 mL from each vial for HPLC Analysis • 5. Shake the samples again and transfer to 50 mL Centrifuge tubes. • 6. Centrifuge for 20 minutes at 2500 rpm • 7. Again carefully withdraw 0.9 mL from each for HPLC Analysis.
Shaking the Aminoflavone in either water or 1% Aqueous PVA results in a dispersion of small particles that are difficult to see. They are suspended in the solution. HPLC duplication will be very poor since the “solution” is not uniform suspension of different size particles.

For series [8] the following is noted: cited from earlier work.
Series [9] in a line: Solubility of aminoflavone in Freon-22 / ethanol (BPN-06, BPN-07, BPN-08). Type of series: physicochemical. The conditions noted are these: 40 °C, organic solvent or mixture, thermodynamic from solid. As for the experimental part:
Three supercritical, critical or near critical fluid solubility experiments were conducted on the aminoflavone prodrug (NSC 686288). The experiments were conducted with 100% (neat) Freon-22 at 3,000 psig (BPN-06), and 40° C., 90% Freon-22/10% ethanol at 3,000 psig and 40° C. (BPN-07) and 80% Freon-22/20% ethanol at 3,000 psig and 40° C. (BPN-08). These supercritical, critical or near critical fluid and conditions were selected on the basis of previous experience.
A 5.0 mL sample loop was utilized and each collection vial contained 5.0 ml of the same liquid as the sample loop rinse. Methanol was used as the collection fluid and sample rinse in BPN-06; ethanol was utilized as the collection fluid and sample rinse in BPN-07 and BPN-08. Samples were collected after circulation for 60, 75, 90, 105 and 120 minutes; the sample loop was then flushed of CO2 (except BPN-06). The fractions were then analyzed by HPLC. Each solubility data point is the average of 5 measurements.

Each structure is given as a SMILES string. Converted amounts (≈) assume the structure as drawn. Where two headings read alike, the source gives them in different places.

Consider `CC1=C(/C=C/C(C)=C/C=C/C(C)=C/C(=O)Nc2ccc(O)cc2)C(C)(C)CCC1` [Sample 2, Fenretinide (4HPR)], for which the “decomposition of old standard solution” value in series [1] (methanol solution stored at room temperature on the laboratory bench) is given as “showed decomposition products”. For the same compound, in series [2], the “S = mg/100 mL (preliminary solubility in methanol)” value (“S = mg/100 mL” for short) is given as above 163 mg/100 mL.
`CCCCCCCCCCCCCCC[C@H](O)[C@@H](N)CO` [Sample 3, Safingol]: in series [2], the “S = mg/100 mL” value was above 87 mg/100 mL.
In the case of `C=CCNC1=C2C[C@@H](C)C[C@H](OC)[C@H](O)[C@@H](C)/C=C(\C)[C@H](OC(N)=O)[C@@H](OC)/C=C\C=C(/C)C(=O)NC(=CC1=O)C2=O` [Sample 4, 17-Allylamino Demethoxygeldanamycin (17-AAG)], in [3] (Ethanol), the “Solubility (mg/100 mL)” value stood at 1478 mg/100 mL and the solubility at 5 min came to 1480 µg/mL (≈ 2520 µM). In series [3] (Methanol), the “Solubility (mg/100 mL)” value amounted to 4260 mg/100 mL and the solubility at 5 min was 4260 µg/mL (≈ 7270 µM). Also, in [1] (methanol solution exposed to room light and temperature for several weeks), the “decomposition of old standard solution” value is reported as “only tiny decomposition peaks”. For the same compound, the “S = mg/100 mL” value in series [2] is recorded as above 220 mg/100 mL.
On to `Cc1c(F)c(N)c2c(=O)cc(-c3ccc(N)c(F)c3)oc2c1F` [Sample 5, Aminoflavone], for which the “Solubility (mg/100 mL)” value is on record as 240 mg/100 mL in series [3] (Ethanol) and 280 mg/100 mL in [3] (Methanol). Moreover, the solubility at 5 min in series [3] (Ethanol) was 240 µg/mL (≈ 749 µM); in [3] (Methanol), 280 µg/mL (≈ 874 µM); in [7] (1% PVA in water, aqueous with cosolvent or surfactant or cyclodextrin, 1% PVA after centrifugation, average, read-out: average (actual) solubility) it was 0.22 µg/mL (≈ 0.687 µM); in series [7] (1% PVA in water, aqueous with cosolvent or surfactant or cyclodextrin, 1% PVA after centrifugation, read-out: Solubility), 0.2 µg/mL (≈ 0.624 µM); in series [7] (1% PVA in water, aqueous with cosolvent or surfactant or cyclodextrin, 1% PVA, after shaking, before centrifugation, read-out: Solubility), 14 µg/mL (≈ 43.7 µM); in series [7] (1% PVA in water, aqueous with cosolvent or surfactant or cyclodextrin, 1% PVA, before centrifugation, average, read-out: average (apparent) solubility), 12.1 µg/mL (≈ 37.6 µM). Further, the solubility at 5 min in [7] (DI water, water, DI water after centrifugation, average, read-out: average solubility) turned out to be 0.33 µg/mL (≈ 1.03 µM); in series [7] (DI water, water, DI water after centrifugation, read-out: Solubility) it was 0.34 µg/mL (≈ 1.06 µM); in series [7] (DI water, water, DI water, after shaking, before centrifugation, read-out: Solubility), 7.84 µg/mL (≈ 24.5 µM); in series [7] (DI water, water, DI water, before centrifugation, average, read-out: average solubility), 10.7 µg/mL (≈ 33.3 µM). Also, in series [4], the “product degradation of treated materials versus untreated controls (HPLC)” value is “did not indicate any product degradation”. The “solubility in 1% PVA” value in series [5] is on record as “essentially insoluble”. Moreover, the “toxicity of intravenous treatments versus prodrug NSC 710464D” value in series [6] is reported as “less toxic”. Moreover, the “S = mg/100 mL” value in series [2] came to 48 mg/100 mL. For the same compound, the solubility in [2] (organic solvent or mixture, thermodynamic from solid, read-out: measured solubility in methanol) is 480 µg/mL (≈ 1500 µM); in [8] (pH 4 and pH 7), 126 to 188 ng/mL; in [9] (BPN-06: Freon-22 100 vol %, ethanol 0 vol %, 3,000 psig and 40° C.), 65 µg/mL (≈ 203 µM); in [9] (BPN-07: Freon-22 90 vol %, ethanol 10 vol %, 3,000 psig and 40° C.), 108 µg/mL (≈ 337 µM); in [9] (BPN-08: Freon-22 80 vol %, ethanol 20 vol %, 3,000 psig and 40° C.), 116 µg/mL (≈ 362 µM). In addition, in series [7] (1% PVA, before centrifugation, average), the “average (apparent) solubility” value was found to be 12 µg/mL. The same compound displayed an average solubility in series [7] (DI water after centrifugation, average) of 0.31 µg/mL. For the same compound, in series [8] (DMSO), the “solubility in DMSO” value is on record as “readily soluble”. Moreover, in series [8] (pH 10 (glycine buffer)), the aqueous solubility is given as 650 ng/mL (≈ 2.03 µM).

The values are drawn from patent publication US8703727B2, “Nanotechnology formulation of poorly soluble compounds” (Aphios Corporation, priority 2010, dated 2014).
